Measured values as given in patent publication US7345070B2, “Peroxisome proliferator activated receptor agonists” (Eli Lilly and Company, priority 2000, dated 2008).

What was measured:
[1] = system: db/db mice; assay: Evaluation of glucose levels in db/db mice; type: in vivo; settings: Mus musculus, 168 h, 30 mg/kg oral gavage daily for 7 days, 100% = glucose not different from lean values, read-out: Glucose Normalisation
Method: Five week old male diabetic (db/db) mice [C57BlKs/j-m+/+ Lepr(db), Jackson Laboratory, Bar Harbor, Me.] or lean littermates (db+) were housed 6 per cage (10″×20″×8″ with aspen chip bedding) with food (Purina 5015) and water available at all times. After an acclimation period of 2 weeks, animals were individually identified by ear notches, weighed, and bled via the tail vein for determination of initial glucose levels. Blood was collected (100 μl) from unfasted animals by wrapping each mouse in a towel, cutting the tip of the tail with a scalpel, and milking blood from the tail into a heparinized capillary tube (Fisher) balanced on the edge of the bench. Sample was discharged into a heparinized microtainer with gel separator (VWR) and retained on ice. Plasma was obtained after centrifugation at 4° C. and glucose measured immediately. Remaining plasma was frozen until the completion of the experiment, when glucose and triglycerides were assayed in all samples. Animals were grouped based on initial glucose levels and body weights. Beginning the following morning, mice were dosed daily by oral gavage for 7 days using a 20 gauge, 1½″ curved disposable feeding needle. Treatments were test compounds (30 mg/kg), a positive control agent (30 mg/kg) or vehicle [1% carboxymethylcellulose (w/v)/0.25% Tween80 (w/v); 0.3 ml/mouse]. On day 7, mice were weighed and bled (tail vein) 3 hours after dosing. Twenty-four hours after the 7th dose (i.e., day 8), animals were bled again (tail vein). Samples obtained from conscious animals on days 0, 7 and 8 were assayed for glucose. After the 24 hour bleed, animals were weighed and dosed for the final time. Three hours after dosing on day 8, animals were anesthetized by inhalation of isoflurane and blood obtained via cardiac puncture (0.5-0.7 ml). Whole blood was transferred to serum separator tubes, chilled on ice and permitted to clot. Serum was obtained after centrifugation at 4° C. and frozen until analysis for compound levels. After sacrifice by cervical dislocation, the liver, heart and epididymal fat pads were excised and weighed.
The animals dosed with vehicle had average triglycerides values of 170-230 mg/dl, which were reduced by the positive PPARγ control (70-120 mg/dl with a mean reduction of 50%). Male db/db mice were hyperglycemic (average glucose of 680-730 mg/dl on the 7th day of treatment), while lean animals had average glucose levels between 190-230 mg/dl.
Glucose was measured […] using commercially purchased reagents (Sigma #315-500). According to the manufacturers, the procedures were modified from published work (McGowan, M. W., Artiss, J. D., Strandbergh, D. R. & Zak, B. Clin Chem, 20:470-5 (1974) and Keston, A. Specific colorimetric enzymatic analytical reagents for glucose. Abstract of papers 129th Meeting ACS, 31C (1956).); and depend on the release of a mole of hydrogen peroxide for each mole of analyte, coupled with a color reaction first described by Trinder (Trinder, P. Determination of glucose in blood using glucose oxidase with an alternative oxygen acceptor. Ann Clin Biochem, 6:24 (1969)). The absorbance of the dye produced is linearly related to the analyte in the sample. The assays were further modified in our laboratory for use in a 96 well format. Standards (Sigma #339-11, Sigma #16-11, and Sigma #CC0534 for glucose, triglycerides and total cholesterol, respectively), quality control plasma (Sigma # A2034), and samples (2 or 5 μl/well) were measured in duplicate using 200 μl of reagent. An additional aliquot of sample, pipetted to a third well and diluted in 200 μl water, provided a blank for each specimen. Plates were incubated at room temperature (18, 15, and 10 minutes for glucose, triglycerides and total cholesterol, respectively) on a plate shaker (DPC Micormix 5) and absorbance read at 500 nm (glucose and total cholesterol) or 540 nm (triglycerides) on a plate reader (Wallac Victor 1420). […]

[2] = system: huPPARα; assay: Cotransfection assay in CV-1 cells, huPPARα; type: cell-based, human; settings: GAL4 chimeric system, relative to PPARα agonist reference molecule
Method: DNA-dependent binding (ABCD binding) was carried out using SPA technology with PPAR receptors. Tritium-labeled PPARα and PPARγ agonists were used as radioligands for generating displacement curves and IC50 values with compounds of the invention. Cotransfection assays were carried out in CV-1 cells. The reporter plasmid contained an acylCoA oxidase (AOX) PPRE and TK promoter upstream of the luciferase reporter cDNA. Appropriate PPARs and RXRα were constitutively expressed using plasmids containing the CMV promoter. […] In order to eliminate such interference, a GAL4 chimeric system was used in which the DNA binding domain of the transfected PPAR was replaced by that of GAL4, and the GAL4 response element was utilized in place of the AOX PPRE. Cotransfection efficacy was determined relative to PPARα agonist and PPARγ agonist reference molecules. Efficacies were determined by computer fit to a concentration-response curve, or in some cases at a single high concentration of agonist (10 μM). For binding or cotransfection studies with receptors other than PPARs, similar assays were carried out using appropriate ligands, receptors, reporter constructs, etc., for that particular receptor.
These studies were carried out to evaluate the ability of compounds of the invention to bind to and/or activate various nuclear transcription factors, particularly huPPARα (“hu” indicates “human”) and huPPARγ. These studies provide in vitro data concerning efficacy and selectivity of compounds of the invention. Furthermore, binding and cotransfection data for compounds of the invention were compared with corresponding data for marketed compounds that act on either huPPARα or huPPARγ.

SMILES	inhibition in vivo at 30 mg/kg [1] [%]	huPPARα CTF Efficacy [2] [%]
Cc1oc(-c2cccc(Br)c2)nc1CCOc1ccc(CC(C)(Oc2ccccc2)C(=O)O)cc1 (centres unmarked) [Example 8, 3-(4-{2-[2-(3-Bromophenyl)-5-methyloxazol-4-yl]ethoxy}phenyl)-2-methyl-2-phenoxypropionic acid]	97	54
Cc1oc(C2(C)CCCCC2)nc1CCOc1ccc(CC(C)(Oc2ccccc2)C(=O)O)cc1 (centres unmarked) [Example 9, 2-Methyl-3-(4-{2-[5-methyl-2-(1-methylcyclohexyl)oxazol-4-yl]ethoxy}phenyl)-2-phenoxypropionic acid]	95	61
Cc1oc(-c2cccs2)nc1CCOc1ccc(CC(C)(Oc2ccc(C(C)(C)C)cc2)C(=O)O)cc1 (centres unmarked) [Example 17, 2-Methyl-3-{4-[2-(5-methyl-2-thiophen-2-yl-oxazol-4-yl)-ethoxy]-phenyl}-2-(4-tert-butylphenoxy)-propionic acid]	112	129
Cc1oc(C2CCCCC2)nc1CCOc1ccc(CC(C)(Oc2ccc(C(C)(C)C)cc2)C(=O)O)cc1 (centres unmarked) [Example 18, 2-Methyl-3-(4-{2-[5-methyl-2-cyclohexylyl-oxazol-4-yl]-ethoxy}-phenyl)-2-(4-tert-butylphenoxy)-propionic acid]	110	102
COc1ccc(OC(C)(Cc2ccc(OCCc3nc(-c4cccs4)oc3C)cc2)C(=O)O)cc1 (centres unmarked) [Example 19, 2-Methyl-3-{4-[2-(5-methyl-2-thiophen-2-yl-oxazol-4-yl)-ethoxy]-phenyl}-2-(4-methoxyphenoxy)-propionic acid]	95	64
Cc1oc(-c2cccs2)nc1CCOc1ccc(CC(C)(Oc2cccc(F)c2)C(=O)O)cc1 (centres unmarked) [Example 22, 2-(3-Fluoro-phenoxy)-2-methyl-3-{4-[2-(5-methyl-2-thiophen-2-yl-oxazol-4-yl)-ethoxy]-phenyl}-propionic acid]	85	51
Cc1oc(C2CCCCC2)nc1CCOc1ccc(CC(C)(Oc2cccc(F)c2)C(=O)O)cc1 (centres unmarked) [Example 23, 2-(3-Fluoro-phenoxy)-2-methyl-3-{4-[2-(5-methyl-2-cyclohexyl-oxazol-4-yl)-ethoxy]-phenyl}-propionic acid]	97	40
Cc1oc(-c2cccs2)nc1CCOc1ccc(CC(C)(Oc2cccc(C(C)(C)C)c2)C(=O)O)cc1 (centres unmarked) [Example 25, 2-(3-tert-Butyl-phenoxy)-2-methyl-3-{4-[2-(5-methyl-2-thiophen-2-yl-oxazol-4-yl)-ethoxy]-phenyl}-propionic acid]	73	95
Cc1oc(-c2cccs2)nc1CCOc1ccc(CC(C)(Oc2ccccc2F)C(=O)O)cc1 (centres unmarked) [Example 27, 2-(2-Fluoro-phenoxy)-2-methyl-3-{4-[2-(5-methyl-2-thiophen-2-yl-oxazol-4-yl)-ethoxy]-phenyl}-propionic acid]	86	46
Cc1oc(-c2ccccc2)nc1CCOc1ccc(CC(C)(Oc2ccc(Cl)cc2)C(=O)O)cc1 (centres unmarked) [Example 29, 2-(4-Chloro-phenoxy)-2-methyl-3-{4-[2-(5-methyl-2-phenyl-oxazol-4-yl)-ethoxy]-phenyl}-propionic acid]	86	65
Cc1oc(C2CCCCC2)nc1CCOc1ccc(CC(C)(Oc2ccc(C3CCCCC3)cc2)C(=O)O)cc1 (centres unmarked) [Example 34, 3-{4-[2-(2-Cyclohexyl-5-methyl-oxazol-4-yl)-ethoxy]-phenyl}-2-(4-cyclohexyl-phenoxy)-2-methyl-propionic acid]	80	112
Cc1ccc(OC(C)(Cc2ccc(OCCc3nc(C4CCCCC4)oc3C)cc2)C(=O)O)cc1C (centres unmarked) [Example 35, 3-{4-[2-(2-Cyclohexyl-5-methyl-oxazol-4-yl)-ethoxy]-phenyl}-2-(3,4-dimethyl-phenoxy)-2-methyl-propionic acid]	84	78
Cc1ccc(OC(C)(Cc2ccc(OCCc3nc(-c4cccs4)oc3C)cc2)C(=O)O)cc1C (centres unmarked) [Example 36, 2-(3,4-Dimethyl-phenoxy)-2-methyl-3-{4-[2-(5-methyl-2-thiophen-2-yl-oxazol-4-yl)-ethoxy]-phenyl}-propionic acid]	92	70
Cc1ccc(OC(C)(Cc2ccc(OCCc3nc(-c4cccs4)oc3C)cc2)C(=O)O)cc1 (centres unmarked) [Example 40, 2-Methyl-3-{4-[2-(5-methyl-2-thiophen-2-yl-oxazol-4-yl)-ethoxy]-phenyl}-2-p-tolyloxy-propionic acid]	103	77
Cc1ccc(OC(C)(Cc2ccc(OCCc3nc(C4CCCCC4)oc3C)cc2)C(=O)O)cc1 (centres unmarked) [Example 41, 3-{4-[2-(2-Cyclohexyl-5-methyl-oxazol-4-yl)-ethoxy]-phenyl}-2-methyl-2-p-tolyloxy-propionic acid]	101	49
Cc1oc(C2CCCCC2)nc1CCOc1ccc(CC(C)(Oc2ccc(OC(F)(F)F)cc2)C(=O)O)cc1 (centres unmarked) [Example 44, 3-{4-[2-(2-Cyclohexyl-5-methyl-oxazol-4-yl)-ethoxy]-phenyl}-2-methyl-2-(4-trifluoromethoxy-phenoxy)-propionic acid]	83	54
Cc1oc(-c2cccs2)nc1CCOc1ccc(CC(C)(Oc2ccc(C(F)(F)F)cc2)C(=O)O)cc1 (centres unmarked) [Example 51, 2-Methyl-3-{4-[2-(5-methyl-2-thiophen-2-yl-oxazol-4-yl)-ethoxy]-phenyl}-2-(4-trifluoromethyl-phenoxy)-propionic acid]	88	152
Cc1oc(C2CCCCC2)nc1CCOc1ccc(CC(C)(Oc2ccc(C(F)(F)F)cc2)C(=O)O)cc1 (centres unmarked) [Example 52, 3-{4-[2-(2-Cyclohexyl-5-methyl-oxazol-4-yl)-ethoxy]-phenyl}-2-methyl-2-(4-trifluoromethyl-phenoxy)-propionic acid]	98	108
Cc1oc(C2CCCCC2)nc1CCOc1ccc(CC(C)(Oc2ccc(F)c(F)c2)C(=O)O)cc1 (centres unmarked) [Example 58, 3-{4-[2-(2-Cyclohexyl-5-methyl-oxazol-4-yl)-ethoxy]-phenyl}-2-(3,4-difluoro-phenoxy)-2-methyl-propionic acid]	81	149
